# Measured values reported in patent publication US20120189558A1, “ANTI-BACTERIAL COMPOSITIONS COMPRISING EXTRACTS OF EREMOPHILA LONGIFOLIA AND METHODS FOR USE OF SAME” (priority 2009, published 2012).
# Assays:
# [1] = system: salivary bacteria biofilm; experiment: Salivary bacteria artificial biofilm assay; type: cell-based, human; details: 5 mg/ml, 1 hour treatment
# Description: (§1) Artificial biofilm assays were performed based on the method of Alviano et al. (2008). Non-stimulated saliva was collected from a healthy donor and 20 μL was placed on sterile 0.22 μm Millipore membrane disks of 13 mm diameter, previously placed over BHI agar plates. Plates were incubated for 48 hours at 37° C. After biofilm growth, the disks were collected and each disk was placed inside a bottle containing 3 ml of stem extract (5 mg/ml or 10 mg/ml in ethanol), Milli-Q distilled water or ethanol for 1 hour at 37° C. with gentle shaking. Then, the disks were briefly washed with Milli-Q distilled water to remove the plant extract and unbound bacterial cells, and the biofilm was extracted by vortexing the disks in 1 ml of BHI broth. Immediately, serial dilutions were performed and 100 μL of each dilution were spread on BHI agar. The plates were incubated in candle jars for 48 hours at 37° C. and a viable count was performed. An S. mutans artificial biofilm assay was performed by repeating the above method except that a pure ON culture of S. mutans was grown on the membrane disks instead of salivary bacteria. Both this assay and the salivary assay were performed in duplicate.
# S. mutans biofilm = experiment: S. mutans artificial biofilm assay; type: cell-based, Streptococcus mutans; details: 5 mg/ml, 1 hour treatment
# Description: as §1
# S. sobrinus (6715-247) = experiment: Plate-hole and disk diffusion assays; type: cell-based, Streptococcus sobrinus; details: 2 mg/ml positive control, mean +/- SD of three plate-hole and three disk diffusion assays
# Description: (§2) Plate-hole diffusion assays were used to test for antibacterial activity (Palombo and Semple, 2001). A pure colony of each culture was grown in BHI broth and 200 μL were added to 15 ml of molten BHI agar. The inoculated agar was gently mixed and transferred to a sterile petri dish. Once set and dried, a sterilised core-borer (6 mm diameter) was used to make wells in the agar, and 10 μL of plant extract were added into each well. One well on each plate was filled with neat solvent as a control. Disk diffusion assays were also used to test for antibacterial activity (Pennacchio et al., 2005). 10 μL of each extract and control were placed on sterile paper disks (6 mm diameter, Oxoid) and allowed to dry for 25 minutes. 100 μL of each overnight (ON) culture was spread on BHI agar and allowed to dry for 10 minutes. Disks were transferred to the agar surface. Both plate-hole and disk diffusion assays were incubated overnight at 37° C. in candle jars and were carried out in triplicate.
# [2] = system: Streptococcus mutans (969); experiment: Plate-hole and disk diffusion assays; type: cell-based; details: S. mutans, 2 mg/ml positive control, mean +/- SD of three plate-hole and three disk diffusion assays
# Description: as §2
# [3] = system: Stenotrophomonas maltophila - antibiotic-resistant clinical isolate; experiment: MIC by CLSI microbroth dilution; type: cell-based, Stenotrophomonas maltophilia; details: Stenotrophomonas sp. LMG 10879; isolate GN13
# Description: (§3) A study was carried out to determine the minimum inhibitory concentration (MIC) for Emubush extract and a comparator against a panel of isolates using Clinical and Laboratory Standards Institute (CLSI) broth methodology.
# (§4) The Emubush extract was prepared by dissolving 95.2 mg in ethanol. The solvent was then evaporated off and the material re-dissolved in ethanol at room temperature.
# (§5) MIC was determined by microbroth dilution following CLSI methodology. [CLSI Methods for Dilution Antimicrobial Susceptibility Tests for Bacteria That Grow Aerobically; Approved Standard-Eighth Edition. CLSI Document M07-A8. CLSI, Wayne, Pa. 19087-1898, USA, 2009].
# [4] = system: Pseudomonas aeruginosa - multi-drug resistant clinical isolate; experiment: MIC by CLSI microbroth dilution; type: cell-based; details: isolate GN11
# Description: as §3, §4, §5
# [5] = system: Stenotrophomonas maltophilia - antibiotic-susceptible clinical isolate; experiment: MIC by CLSI microbroth dilution; type: cell-based; details: isolate GN12
# Description: as §3, §4, §5
# [6] = system: Burkholderia cepacia - antibiotic-susceptible clinical isolate; experiment: MIC by CLSI microbroth dilution; type: cell-based; details: isolate GN14
# Description: as §3, §4, §5
# [7] = system: Staphylococcus epidermidis - methicillin-resistant clinical isolate; experiment: MIC by CLSI microbroth dilution; type: cell-based; details: isolate GP8
# Description: as §3, §4, §5
# [8] = system: Streptococcus pyogenes - antibiotic-susceptible clinical isolate; experiment: MIC by CLSI microbroth dilution; type: cell-based; details: isolate GP59
# Description: as §3, §4, §5
# [9] = system: Staphylococcus epidermidis - antibiotic susceptible clinical isolate; experiment: MIC by CLSI microbroth dilution; type: cell-based; details: isolate GP7
# Description: as §3, §4, §5
# [10] = system: Serratia marcescens - antibiotic-susceptible clinical isolate; experiment: MIC by CLSI microbroth dilution; type: cell-based; details: isolate GN08
# Description: as §3, §4, §5
# [11] = system: Staphylococcus aureus - methicillin-resistant clinical isolate; experiment: MIC by CLSI microbroth dilution; type: cell-based; details: isolate GP4
# Description: as §3, §4, §5
# [12] = system: Serratia marcescens - multi-drug resistant clinical isolate; experiment: MIC by CLSI microbroth dilution; type: cell-based; details: isolate GN09
# Description: as §3, §4, §5
# [13] = system: Streptococcus pneumoniae - multi-drug resistant clinical isolate; experiment: MIC by CLSI microbroth dilution; type: cell-based; details: isolate GP24
# Description: as §3, §4, §5
# [14] = system: Staphylococcus aureus ATCC 29213 - antibiotic-susceptible type strain; experiment: MIC by CLSI microbroth dilution; type: cell-based; details: ATCC29213, isolate GP1
# Description: as §3, §4, §5
# [15] = system: Staphylococcus aureus ATCC 43300 - methicillin-resistant type strain; experiment: MIC by CLSI microbroth dilution; type: cell-based; details: ATCC43300, isolate GP3
# Description: as §3, §4, §5
# [16] = system: a selection of Streptococcus species; details: isolated active compound; Hu et al., 2000; cited from earlier work
compound,measurement,setting,value
"[H]/N=C(\N/C(=N/[H])NCCCCCCNC(=N)NC(=N)Nc1ccc(Cl)cc1)Nc1ccc(Cl)cc1 [Chlorhexidine, chlorhexidine]",reduction in viable biofilm cells,[1],greatest reduction in viable biofilm bacteria
same,reduction in viable biofilm cells,S. mutans biofilm,greatest reduction in viable biofilm bacteria
same,mean diameter of the growth inhibition zone,S. sobrinus (6715-247),20.5 +/− 0.6 mm
same,mean diameter of the growth inhibition zone,S. sobrinus (6715-247); listed as chlorhexidine,20.5+/−0.6 mm
same,mean diameter of the growth inhibition zone,[2],22.1 +/− 0.6 mm
same,mean diameter of the growth inhibition zone,[2]; listed as chlorhexidine,22.1+/−0.6 mm
C[C@H]1COc2c(N3CCN(C)CC3)c(F)cc3c(=O)c(C(=O)O)cn1c23 [Levofloxacin],MIC,[3],2 µg/mL
same,MIC,[4],4 µg/mL
same,MIC,[5],0.12 µg/mL
same,MIC,[6],1 µg/mL
same,MIC,[7],0.12 µg/mL
same,MIC,[8],0.5 µg/mL
same,MIC,[9],0.12 µg/mL
same,MIC,[10],0.06 µg/mL
same,MIC,[11],0.12 µg/mL
same,MIC,[12],2 µg/mL
same,MIC,[13],1 µg/mL
same,MIC,[14],0.25 µg/mL
same,MIC,[15],0.12 µg/mL
COc1ccc2cc3[n+](cc2c1OC)CCc1cc2c(cc1-3)OCO2 [berberine],MIC,[16],13 to 20 µg/mL
